Measured values reported in US10660928B2, “Pharmaceutical composition containing combination extracts of Moutan Root Bark, Angelica Dahurica Root, bupleurum root or fractions thereof for prevention and treatment of neurodegenerative disorder” (UNIVERSITY-INDUSTRY COOPERATION GROUP OF KYUNG HEE …, priority 2014, dated 2020).

How the values were obtained:
interleukin-6, (IL-6) = assay: RT-PCR of IL-6 mRNA, LPS-induced cells; format: cell-based, mouse; settings: BV2, treatment 1.0 μg/ml, LPS 100 ng/ml; negative control 100.00
Description: (§1) Particularly, BV2 cells were cultured by the same manner as described in Experimental Example <3-1>, and inflammatory response was induced. Then, RT-PCR was performed with the cells by the same manner as described in Experimental Example <1-4>, followed by quantitative analysis of the expression levels of iNOS, IL-6, and NF-kB p65/ReIA genes. The normal control was not treated with the extract of the invention or the active component thereof but treated with DMSO alone. The negative control was not treated with the extract or the active component but treated with 100 ng/ml of LPS alone to induce inflammatory response. Then, the expression of the inflammatory response marker gene was confirmed by the same manner as described above.

BV2 cells [1] = assay: MTT assay, LPS-induced inflammatory response; format: cell-based, mouse; settings: BV2, treatment 1.0 μg/ml, inducer LPS 100 ng/ml
Description: Particularly, BV2 cells were cultured by the same manner as described in Experimental Example <3-1>. Then, the cultured cells were transferred into a serum free medium at the density of 1×10^5 cells/well. The cells were treated with the Bupleurum Root 90% ethanol extract prepared in Example <1-3>, saikosaponin A, saikosaponin B2, saikosaponin B4, or saikosaponin D at the concentration of 1.0 μg/ml, followed by culture for 4 hours. The cells were then treated with 100 ng/ml of lipopolysaccharide (LPS), followed by culture for 20 hours to induce inflammatory response. MTT assay was performed with the cells induced with inflammatory response by the same manner as described in Experimental Example <1-2>. The damage of mitochondria complex 1 was confirmed to see how the damage level was either increased or decreased, compared with the normal control group treated with DMSO without the extract or its active component. In the meantime, the negative control group was treated with 100 ng/ml of LPS alone to induce inflammatory response and was not treated with the extract or its active component. Then, MTT assay was performed by the same manner as described above.

[2] = test system: inducible nitric oxide synthase (iNOS); assay: RT-PCR of iNOS mRNA, LPS-induced cells; format: cell-based, mouse; settings: BV2, treatment 1.0 μg/ml, LPS 100 ng/ml; negative control 100.00
Description: as §1

BV2 cells [3] = assay: DCF-DA intracellular ROS, LPS-induced cells; format: cell-based, mouse; settings: BV2, treatment 1.0 μg/ml, inducer LPS 100 ng/ml
Description: Particularly, BV2 cells were cultured by the same manner as described in Experimental Example <3-1>, and inflammatory response was induced. Then, the cells induced with inflammatory response were treated with 1 μM DCF-DA and 0.05 μM bisbenzimide (Hoechst 33342), followed by staining at 37° C. for 1 hour. After the staining, the fluorescence intensity of DCF-DA was measured at 485 nm/535 nm, and the fluorescence intensity of bisbenzimide was measured at 335 nm/460 nm. Based on the ratio of DCF-DA/bisbenzimide, ROS was quantified. The amount of ROS, either increased or decreased, was compared with that of the normal control not treated with the extract or the active component thereof but treated with DMSO, and the results were presented as %. The negative control was treated with 100 ng/ml of LPS alone to induce inflammatory response but not treated with the extract or the active component thereof. Then, the generation of ROS was investigated by the same manner as described above.
(§2) Particularly, BV2 cells were cultured by the same manner as described in Experimental Example <3-1>, and inflammatory response was induced. Then, 100 μl of the cell culture medium was obtained, to which 100 μl of Griess reagent comprising hydrochloric acid containing 5% sulfanilamide and 2% naphthylethylenediamine was added, followed by reaction in a dark room for 30 minutes. Upon completion of the reaction, OD540 was measured with an EISA microplate reader (Versamax, USA). The concentration of nitric oxide in the medium was calculated using the standard calibration curve of sodium nitrite. To measure the ROS concentration, the cells were treated with 1 μM DCF-DA and 0.05 μM bisbenzimide (Hoechst 33342), followed by staining at 37° C. for 1 hour. After the staining, the fluorescence intensity of DCF-DA was measured at 485 nm/535 nm, and the fluorescence intensity of bisbenzimide was measured at 335 nm/460 nm. Based on the ratio of DCF-DA/bisbenzimide, ROS was quantified. The amount of ROS, either increased or decreased, was compared with that of the normal control not treated with the extract but treated with DMSO, and the results were presented as %. The negative control was treated with 100 ng/ml of LPS alone to induce inflammatory response but not treated with the extract or the active component thereof. Then, the nitric oxide concentration reduction effect and the ROS concentration reduction effect were investigated by the same manner as described above.

BV2 cells [4] = assay: Griess method, nitric oxide in medium of LPS-induced cells; format: cell-based, mouse; settings: BV2, treatment 1.0 μg/ml, inducer LPS 100 ng/ml
Description: Particularly, BV2 cells were cultured by the same manner as described in Experimental Example <3-1>, and inflammatory response was induced. Then, 100 μl of the cell culture medium was obtained, to which 100 μl of Griess reagent comprising hydrochloric acid containing 5% sulfanilamide and 2% naphthylethylenediamine was added, followed by reaction in a dark room for 30 minutes. Upon completion of the reaction, OD540 was measured with an EISA microplate reader (Versamax, USA). The concentration of nitric oxide in the medium was calculated using the standard calibration curve of sodium nitrite. The normal control was not treated with the extract or the active component thereof but treated with DMSO. The negative control was treated with 100 ng/ml of LPS alone to induce inflammatory response but not treated with the extract or the active component. Then, the nitric oxide concentration reduction effect was investigated by the same manner as described above.
as §2

NF-kB p65/ReIA = assay: RT-PCR of NF-kB p65/ReIA mRNA, LPS-induced cells; format: cell-based, mouse; settings: BV2, treatment 1.0 μg/ml, LPS 100 ng/ml; negative control 100.00
Description: as §1

[5] = test system: BV2, the mouse microglial cell line; assay: Cell survival rate (calcein) in normal microglial cells, cytotoxicity; format: cell-based; settings: 1.0 μg/ml, 4 hours
Description: Particularly, BV2, the mouse microglial cell line, was inoculated in 1:1 DMEM (Dulbeco's Modified Eagle's Medium; Gibco, USA) supplemented with 10% FBS, followed by culture in a 37° C., 5% CO2/95% air (O2) incubator. Then, the cultured cells were transferred into a serum free medium at the density of 2.5×10^4 cells/well. The cells were treated with the Bupleurum Root 90% ethanol extract prepared in Example <1-3>, saikosaponin A, saikosaponin B2, saikosaponin B4, or saikosaponin D at the concentration of 1.0 μg/ml for 4 hours. The cells were collected and the cell survival rate was measured by using calcein. The survival rate of the cells that were increased or decreased compared with that of the normal control cells not-treated with the extract or its active component above and instead treated with DMSO was calculated and presented as percentage (%).

| Structure (SMILES) | IL-6 mRNA (% of control) (interleukin-6, (IL-6)) | MTT (% of control) (BV2 cells [1]) | iNOS mRNA (% of control) [2] | DCF-DA-ROS (% of control) (BV2 cells [3]) | NO (BV2 cells [4]) [µM] | p65/ReIA mRNA (% of control) (NF-kB p65/ReIA) | Cell survival rate (% of control) [5] |
| --- | --- | --- | --- | --- | --- | --- | --- |
| C[C@H]1O[C@@H](O[C@H]2CC[C@@]3(C)[C@@H](CC[C@]4(C)[C@@H]3C=CC3=C5CC(C)(C)CC[C@]5(CO)[C@H](O)C[C@]34C)[C@]2(C)CO)[C@H](O)[C@@H](O[C@@H]2O[C@H](CO)[C@@H](O)[C@H](O)[C@H]2O)[C@H]1O [saikosaponin B2, (3b,4a,16a)-16,23,28-Trihydroxyoleana-11,13(18)-dien-3-yl-6-deoxy-3-O-beta-D-glucopyranosyl-beta-D-galactopyranoside] | 29.67 ± 2.39 % of control | 88.85 ± 6.48 % of control | 18.11 ± 2.39 % of control | 214.22 ± 1.87 % of control | 19 ± 2.68 | 50.18 ± 2.67 % of control | 102.74 ± 8.55 % of control |
| C[C@H]1O[C@@H](O[C@H]2CC[C@@]3(C)[C@@H](CC[C@]4(C)[C@@H]3C=C[C@]35OC[C@@]6(CCC(C)(C)C[C@H]63)[C@H](O)C[C@]54C)[C@]2(C)CO)[C@H](O)[C@@H](O[C@@H]2O[C@H](CO)[C@@H](O)[C@H](O)[C@H]2O)[C@H]1O [saikosaponin D, (3b,4a,16a)-13,28-Epoxy-16,23-dihydroxyolean-11-en-3-yl 6-deoxy-3-O-beta-D-glucopyranosyl beta-D-galactopyranoside] | 26.58 ± 1.75 % of control | 86.73 ± 1.25 % of control | 21.23 ± 1.99 % of control | 218.61 ± 2.71 % of control | 18.1 ± 2.93 | 49.80 ± 3.54 % of control | 97.45 ± 3.99 % of control |
| CO[C@@H]1C=C2[C@@H]3CC(C)(C)CC[C@]3(CO)[C@H](O)C[C@@]2(C)[C@]2(C)CC[C@H]3[C@](C)(CO)[C@@H](O[C@@H]4O[C@H](C)[C@H](O)[C@H](O[C@@H]5O[C@H](CO)[C@@H](O)[C@H](O)[C@H]5O)[C@H]4O)CC[C@]3(C)[C@@H]12 [saikosaponin B4, (3β,11α,16α)-16,23,28-Trihydroxy-11-methoxyolean-12-en-3-yl-6-deoxy-3-O-β-D-glucopyranosyl-β-D-galactopyranoside] | 28.53 ± 1.92 % of control | 87.12 ± 2.56 % of control | 26.06 ± 3.27 % of control | 223.26 ± 2.86 % of control | 17.2 ± 2.11 | 53.70 ± 4.72 % of control | 97.99 ± 2.86 % of control |
